The text below walks through data of ChEMBL document CHEMBL1833945, “Synthesis and anticonvulsant activity of new N-Mannich bases derived from 5-cyclopropyl-5-phenyl- and 5-cyclopropyl-5-(4-chlorophenyl)-imidazolidine-2,4-diones” (Bioorg Med Chem, 2011).

Data set [1] deals with Mus musculus. Kind of data set: Neurotoxicity in CF1 albino mouse assessed as impair in motor coordination at 300 mg/kg, ip after 4 hrs by rotarod test. The conditions noted are these: in vivo. Type of data set: toxicity, organism-based. On the set-up: dose 300 mg/kg, route intraperitoneal. (The rotarod test checks motor coordination on a turning rod.)
The subject of data set [2] is Mus musculus. Description: Anticonvulsant activity in CF1 albino mouse assessed as protection against subcutaneous pentylenetetrazole-induced seizures at 300 mg/kg, […] after 4 hrs. Type of data set: functional, organism-based. On the set-up: dose 300 mg/kg.
For data set [3], the system named is Mus musculus. Kind of data set: Anticonvulsant activity in CF1 albino mouse assessed as protection against maximal electroshock-induced seizures at 300 mg/kg, ip after 0.5 hrs. In kind it is functional, organism-based. On the set-up: dose 300 mg/kg. For orientation: In the maximal electroshock model the usual endpoint is tonic extension of the hind limbs.
Data set [4] has as its system Mus musculus. Description: Anticonvulsant activity in ip dosed CF1 albino mouse assessed as protection against subcutaneous pentylenetetrazole-induced seizures after 0.5 hrs. The conditions noted are these: read-out: MED. In kind it is functional.
For data set [5], the system named is Mus musculus. Description: Anticonvulsant activity in ip dosed CF1 albino mouse assessed as protection against maximal electroshock-induced seizures after 4 hrs. The conditions noted are these: read-out: MED. In kind it is functional.
In data set [6] the test system is Mus musculus. Description: Neurotoxicity in CF1 albino mouse assessed as impair in motor coordination at 300 mg/kg, ip after 0.5 hrs by rotarod test. In kind it is toxicity, organism-based. On the set-up: dose 300 mg/kg, route intraperitoneal. The conditions noted are these: in vivo.
Data set [7] relates to Rattus norvegicus. Description: Neurotoxicity in Sprague-Dawley albino rat assessed as motor impairment at 30 mg/kg, po after 4 hrs by rotarod test. Type of data set: toxicity, organism-based. On the set-up: dose 30 mg/kg, route oral. The conditions noted are these: in vivo.
The species named for data set [8] is Rattus norvegicus. Kind of data set: Protective index, ratio of TD50 for neurotoxicity in Sprague-Dawley albino rat to ED50 for inhibition of maximal electroshock-induced seizures in Sprague-Dawley albino rat. In kind it is functional.
The subject of data set [9] is Rattus norvegicus. Kind of data set: Neurotoxicity in Sprague-Dawley albino rat assessed as motor impairment at 30 mg/kg, po after 0.5 hrs by rotarod test. In kind it is toxicity, organism-based. More on the design: dose 30 mg/kg, route oral. Particulars: in vivo.
For data set [10], the system named is Mus musculus. Kind of data set: Anticonvulsant activity in ip dosed CF1 albino mouse assessed as protection against maximal electroshock-induced seizures after 0.5 hrs. In kind it is functional. The conditions noted are these: read-out: MED.
In data set [11] the test system is Rattus norvegicus. Kind of data set: Anticonvulsant activity in po dosed Sprague-Dawley albino rat assessed as time to peak effect. In kind it is functional.
In data set [12] the test system is Rattus norvegicus. Description: Anticonvulsant activity in Sprague-Dawley albino rat assessed as protection against maximal electroshock-induced seizures at 30 mg/kg, po after 0.5 hrs. More on the design: dose 30 mg/kg. In kind it is functional, organism-based.
Data set [13] has as its system Rattus norvegicus. Description: Neurotoxicity in Sprague-Dawley albino rat assessed as motor impairment at 30 mg/kg, po after 2 hrs by rotarod test. Type of data set: toxicity, organism-based. On the set-up: dose 30 mg/kg, route oral. The conditions noted are these: in vivo.
The test system of data set [14] is Mus musculus. Description: Neurotoxicity in ip dosed CF1 albino mouse assessed as minimum dose required to cause impair in motor coordination after 4 hrs by rotarod test. Particulars: in vivo. In kind it is toxicity, organism-based.
Data set [15] deals with Rattus norvegicus. Kind of data set: Neurotoxicity in Sprague-Dawley albino rat assessed as motor impairment at 30 mg/kg, po after 0.25 hrs by rotarod test. Type of data set: toxicity, organism-based. More on the design: dose 30 mg/kg, route oral. The conditions noted are these: in vivo.
The test system of data set [16] is Rattus norvegicus. Kind of data set: Anticonvulsant activity in po dosed Sprague-Dawley albino rat assessed as protection against subcutaneous pentylenetetrazole-induced seizures. In kind it is functional.
Data set [17] relates to Mus musculus. Description: Neurotoxicity in ip dosed CF1 albino mouse assessed as minimum dose required to cause impair in motor coordination after 0.5 hrs by rotarod test. In kind it is toxicity, organism-based. Particulars: in vivo.
A short description of data set [18]: Neurotoxicity in oral dosed Sprague-Dawley albino rat assessed as motor impairment by rotarod test. Type of data set: toxicity, organism-based. Particulars: in vivo.
The subject of data set [19] is Rattus norvegicus. Description: Neurotoxicity in Sprague-Dawley albino rat assessed as motor impairment at 30 mg/kg, po after 1 hrs by rotarod test. Type of data set: toxicity, organism-based. On the set-up: dose 30 mg/kg, route oral. Particulars: in vivo.
Data set [20] concerns Rattus norvegicus. Description: Anticonvulsant activity in Sprague-Dawley albino rat assessed as protection against maximal electroshock-induced seizures at 30 mg/kg, po after 0.25 hrs. More on the design: dose 30 mg/kg. In kind it is functional, organism-based.
For data set [21], the system named is Rattus norvegicus. Kind of data set: Anticonvulsant activity in Sprague-Dawley albino rat assessed as protection against maximal electroshock-induced seizures at 30 mg/kg, po after 4 hrs. Type of data set: functional, organism-based. More on the design: dose 30 mg/kg.
The subject of data set [22] is Mus musculus. Description: Toxicity in subcutaneous pentylenetetrazole-induced CF1 albino mouse assessed as myoclonic jerks at 300 mg/kg, ip after 4 hrs. In kind it is organism-based. More on the design: dose 300 mg/kg. Particulars: in vivo, sc.
Data set [23] in a line: Lipophilicity, log P of compound. Type of data set: physicochemical. The conditions noted are these: octanol/water.
The subject of data set [24] is Rattus norvegicus. Description: Anticonvulsant activity in po dosed Sprague-Dawley albino rat assessed as protection against maximal electroshock-induced seizures. Type of data set: functional.
Data set [25] concerns Mus musculus. Description: Neurotoxicity in CF1 albino mouse assessed as loss of rotard grasping at 300 mg/kg, ip after 0.5 hrs by rotarod test. In kind it is toxicity, organism-based. On the set-up: dose 300 mg/kg, route intraperitoneal. Particulars: in vivo.

SMILES strings stand for the structures. Calls of active or inactive are those of the source. The calls are words filed in the database; no cut-off is given here.

For `O=C1NC(c2ccccc2)(C2CC2)C(=O)N1CN1CCN(c2ccccc2)CC1` (stereo not drawn), the Activity entry in [1] and in data set [6] was “Non-toxic” in each case. Also, the outcome in data set [2] and in data set [3] was inactive. Also, the minimal effective dose in [4] and in data set [5] was 100 mg/kg throughout.
The term ED50 denotes the dose at which the effect has come halfway, by size or by number of responders. By TD50 is commonly meant the 50% point of the dose-response relation for the toxic effect studied. Consider `O=C1NC(=O)C(c2ccccc2)(c2ccccc2)N1` [PHENYTOIN], for which the Activity result in data set [7], in data set [9], in data set [13], in data set [15] and in data set [19] was “Non-toxic” each time. Besides, the PI in [8] was above 35.58. Further, the result in [2] was inactive. In addition, the minimal effective dose in data set [10] and in data set [5] was 30 mg/kg in each case. Also, the Time in data set [11] came to 1 h. In data set [12], the outcome was Active. For the same compound, the MTC in data set [14] and in data set [17] was 100 mg/kg in each case. In addition, the ED50 in data set [16] is above 500 mg/kg. For the same compound, the TD50 in data set [18] was above 1000 mg/kg.
What is called logP is a log measure of how a compound divides between an organic and an aqueous phase. Read a low logP as lower lipophilicity. In the case of `O=C1NC(c2ccccc2)(C2CC2)C(=O)N1CN1CCc2ccccc2C1` (stereo not drawn), the Activity result in data set [7] was “Non-toxic”; in data set [1], “Non-toxic”; in data set [9], “Non-toxic”; in [13] it was “Non-toxic”; in data set [15], “Non-toxic”; in data set [22] it was “Toxic”. In [19], the Activity result is “Non-toxic”. For the same compound, the minimal effective dose in data set [10] and in data set [5] was 300 mg/kg throughout. Also, the outcome in data set [12] and in [20] was inactive. Further, the outcome in data set [21] was Active. Also, in data set [17], the MTC worked out at 100 mg/kg. Moreover, the logP in data set [23] stood at 3.02.
Consider `CC(c1ccccc1)N1CCN(CN2C(=O)NC(c3ccccc3)(C3CC3)C2=O)CC1` (stereo not drawn), for which the Activity entry in [7] is given as “Non-toxic”; in data set [1] it was “Non-toxic”; in data set [9], “Non-toxic”; in [13], “Non-toxic”; in [15] it was “Non-toxic”; in data set [22], “Toxic”. In addition, the Activity result in [19] and in data set [6] was “Non-toxic” each time. Moreover, the PI in data set [8] is recorded as above 18.3. The figures for the minimal effective dose in data set [10] and in data set [5] were 300 mg/kg and 100 mg/kg, respectively. Also, in [11], the Time amounted to 2 h. The figures for the ED50 in data set [16] and in data set [24] were below 100 mg/kg and 10.9 mg/kg, respectively. For the same compound, the TD50 in [18] was above 200 mg/kg. In [23], this compound came in with a logP of 3.19.
`CC(c1ccccc1)N1CCN(CN2C(=O)NC(c3ccc(Cl)cc3)(C3CC3)C2=O)CC1` (stereo not drawn): the Activity entry is “Non-toxic” in data set [1] and “Toxic” in data set [25]. For the same compound, the result in [2] was inactive. Also, the minimal effective dose in [10] and in data set [5] was 300 mg/kg throughout. For the same compound, the logP in data set [23] amounted to 3.9.
As to `O=C(OCc1ccccc1)N1CCN(CN2C(=O)NC(c3ccc(Cl)cc3)(C3CC3)C2=O)CC1` (stereo not drawn), the outcome in data set [2] and in [3] was inactive. In data set [5], the minimal effective dose came to 100 mg/kg. For the same compound, the MTC in data set [14] and in [17] was 300 mg/kg each time. The log partition coefficient (logP) in data set [23] was found to be 3.65.
For `O=C1NC(c2ccccc2)(C2CC2)C(=O)N1CN1CCN(c2ccccc2F)CC1` (stereo not drawn), the Activity result in data set [1] and in data set [6] was “Non-toxic” each time. Also, the outcome in [2] and in data set [3] was inactive. The minimal effective dose in data set [5] came to 100 mg/kg.
